# Experimental data published in patent publication US20060229254A1, “Compounds having prolyl oligopeptidase inhibitory activity” (priority 2003, published 2006).
# Target: T1, pig brain prolyl oligopeptidase (Sus scrofa, UniProt P23687)
# T1 construct: The brains were homogenized with a glass-teflon homogenisator in 3 volumes (w/v) of ice-cold 0.1 M sodium-potassium phosphate buffer; from tissue; host or cells: pig brain (whole brain excluding cerebellum and most of the brain stem), 10000 g supernatant of the homogenate
# T1 sequence (P23687 whole entry): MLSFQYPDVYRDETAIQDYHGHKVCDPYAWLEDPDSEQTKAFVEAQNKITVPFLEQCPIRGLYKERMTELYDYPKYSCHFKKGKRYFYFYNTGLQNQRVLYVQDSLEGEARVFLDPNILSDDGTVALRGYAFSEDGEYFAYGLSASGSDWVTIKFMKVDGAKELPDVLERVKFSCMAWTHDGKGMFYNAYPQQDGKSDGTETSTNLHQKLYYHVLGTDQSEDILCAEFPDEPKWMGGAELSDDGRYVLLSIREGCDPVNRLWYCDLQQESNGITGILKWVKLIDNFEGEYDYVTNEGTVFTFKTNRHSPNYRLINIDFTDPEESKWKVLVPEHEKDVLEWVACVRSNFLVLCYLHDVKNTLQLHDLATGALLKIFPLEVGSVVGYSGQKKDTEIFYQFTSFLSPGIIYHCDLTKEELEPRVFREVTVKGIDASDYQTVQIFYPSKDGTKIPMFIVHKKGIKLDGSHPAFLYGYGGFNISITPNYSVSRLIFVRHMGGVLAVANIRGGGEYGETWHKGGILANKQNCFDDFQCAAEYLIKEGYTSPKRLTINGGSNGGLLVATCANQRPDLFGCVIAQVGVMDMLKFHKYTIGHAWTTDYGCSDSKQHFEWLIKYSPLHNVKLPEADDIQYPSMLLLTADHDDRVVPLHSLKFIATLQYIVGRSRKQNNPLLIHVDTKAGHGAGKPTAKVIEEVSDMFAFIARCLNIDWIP
# Experiment: Inhibition of pig brain prolyl oligopeptidase (Suc-Gly-Pro-AMC fluorometric microplate assay)
# Assay type: biochemical
# Details: pig brain supernatant, Suc-Gly-Pro-AMC substrate, 30 min preincubation, 30° C., pH 7.0
# Procedure: The inhibitory effect of the novel compounds on POP activity of pig brain was determined with a method based on that described by Toide et al. (Toide, K, Iwamoto, Y., Fujiwara. T., Abe, H., J. Pharmacol. Exp. Ther., 1995, 274, 1370-1378) for the rat enzyme.
# The whole pig brains, excluding cerebellum and most of the brain stem, of three pigs were placed in liquid nitrogen within 30 min from killing and stored at −80° C. until homogenized. The brains were homogenized with a glass-teflon homogenisator in 3 volumes (w/v) of ice-cold 0.1 M sodium-potassium phosphate buffer (pH 7.0) and the homogenates were centrifuged for 20 min at 4° C. at 10000 g. The supernatants were collected, pooled and stored in small aliquots at −80° C. until used. The supernatant was thawn in ice just before activity assay and diluted in a ratio 1:2 with homogenisation buffer (=enzyme preparation).
# In the microplate assay procedure, 10 μl of enzyme preparation was preincubated with 460 μl of 0.1 M sodium-potassium phosphate buffer (pH 7.0) and 5 μl of a solution of novel compound dissolved in DMSO and diluted with 0.1 M sodium-potassium phosphate buffer at 30° C. for 30 min. The controls contained 10 μl enzyme preparation and 465 μl of 0.1 M sodium-potassium phosphate buffer (pH 7.0). The reaction was initiated by adding 25 μl of 4 mM Suc-Gly-Pro-AMC (AMC: 7-amido-4-methylcoumarin) dissolved in 0.1 M sodium-potassium phosphate buffer (pH 7.0), and the mixture was incubated at 30° C. for 60 min. The reaction was terminated by adding 500 μl of 1 M sodium acetate buffer (pH 4.2).
# Formation of 7-amido-4-methylcoumarin was determined fluorometrically with microplate fluorescence reader (excitation at 360 nm and emission at 460 nm). The final concentration of novel compounds in the assay mixture varied from 10^−12 M to 10^−4 M.
# The prolyl oligopeptidase activity was calculated with the following formula in the presence of various concentrations of novel compounds. To reveal the inhibitory potency of the novel compound, activities (% of control) were plotted against the log concentration of the compound, and the IC50 value was determined by non-linear regression utilizing GraphPad Prism software. Activity (% of control)=a/b×100, where
# a=fluorescence intensity in the presence of a novel compound
# b=fluorescence intensity without a novel compound (control)
row,IC50 [pM],Molecule
1,210,"N#C[C@@H]1CCCN1C(=O)C1CCC=C1C(=O)CCCc1ccccc1 (stereo partly drawn) [Example 5, 2-(4-Phenylbutanoyl)-cyclopent-2-ene-carboxylic acid 2(S)-cyanopyrrolidine amide]"
2,380,"N#C[C@@H]1CCCN1C(=O)C1CCC=C1C(=O)NCc1ccccc1 (stereo partly drawn) [Example 1, 2-(Benzylcarbamoyl)-cyclopent-2-ene-carboxylic acid 2(S)-cyanopyrrolidine amide]"
3,1400,4-Phenylbutanoyl-5(S)-methyl-L-prolyl-pyrrolidine [Example 14]
4,7700,"O=C(Cc1ccccc1)C1=CCCC1C(=O)N1CCCC1 (stereo not shown) [Example 4, 2-Benzylcarbonyl-cyclopent-2-ene-carboxylic acid pyrrolidine amide]"
5,170,"C[C@H]1CC[C@@H](C(=O)N2CCC[C@H]2C(=O)CO)N1C(=O)CCCc1ccccc1 [Example 15, 4-Phenylbutanoyl-5(S)-methyl-L-prolyl-2(S)-(hydroxyacetyl)-pyrrolidine]"
6,2200,"CC(C)(C)OC(=O)N1[C@H](C(=O)N2CCCC2)CC[C@@H]1C(C)(C)C [Example 9, Boc-5(R)-tert-butyl-L-prolyl-pyrrolidine]"
7,9200,"CC(C)(C)OC(=O)N1[C@H](C(C)(C)C)CC[C@H]1C(=O)N1CCCC1 [Example 16, Boc-5(S)-tert-butyl-L-prolyl-pyrrolidine]"
8,240,"CC(C)(C)[C@H]1CC[C@@H](C(=O)N2CCC[C@H]2C(=O)CO)N1C(=O)CCCc1ccccc1 [Example 12, 4-Phenylbutanoyl-5(R)-tert-butyl-L-prolyl-2(S)-(hydroxyacetyl)-pyrrolidine]"
9,320,"O=C(NCc1ccccc1)C1=CCCC1C(=O)N1CCC[C@H]1C(=O)CO (single isomer, unassigned) [Example 2]"
10,9000,"O=C(NCc1ccccc1)C1=CCCC1C(=O)N1CCCC1 (stereo not shown) [Example 3, 2-Benzylcarbamoyl-cyclopent-2-ene-carboxylic acid pyrrolidine amide]"
11,150,"C[C@@H]1CC[C@@H](C(=O)N2CCC[C@H]2C(=O)CO)N1C(=O)CCCc1ccccc1 [Example 8, 4-Phenylbutanoyl-5(R)-methyl-L-prolyl-2(S)-(hydroxyacetyl)-pyrrolidine]"
12,1600,"CC(C)(C)[C@H]1CC[C@@H](C(=O)N2CCCC2)N1C(=O)CCCc1ccccc1 [Example 11, 4-Phenylbutanoyl-5(R)-tert-butyl-L-prolyl-pyrrolidine]"
13,710,4-Phenylbutanoyl-5(R)-methyl-L-prolyl-pyrrolidine [Example 7]
